# Results: patent US20210207070A1, “A CELL CULTURING PLATFORM, A CELL CULTURE SYSTEM, AND A METHOD FOR MODELING NEURAL ACTIVITY IN VITRO” (Tampere University Foundation sr, priority 2018, published 2021)
# System: neurons
# Test: Activity of neurons in the closed-loop cell culturing platform, measured with electrodes in the guiding tunnels
# Type: cell-based
# Conditions: kainate acid added to the compartment Area 1; FIG. 5c
# From the text: FIGS. 5a and 5b illustrate activity of neurons in a cell culturing platform according to an exemplifying and non-limiting embodiment. FIG. 5a illustrates signals measured with electrodes in the compartments of the cell culturing platform. The compartments are denoted with references ‘Area 1’, ‘Area 2’, and ‘Area 3’. As shown by black arrows in FIG. 5a, there is synchronous activity in the compartments Area 1, Area 2, and Area 3. […] of the cell culturing platform. The signals measured with electrodes in the guiding tunnels between the compartments Area 2 and Area 3 are denoted with a reference ‘2-3’, the signals measured with electrodes in the guiding tunnels between the compartments Area 1 and Area 2 are denoted with a reference ‘1-2’, and the signals measured with electrodes in the guiding tunnels between the compartments Area 3 and Area 1 are denoted with a reference ‘3-1’. As shown by black arrows in FIG. 5b, there is synchronous activity in the guiding tunnels between different pairs of the compartments.
# FIG. 5c illustrates an effect of adding kainate acid to the compartment Area 1.
smiles,measurement,value
C=C(C)[C@H]1CN[C@H](C(=O)O)[C@H]1CC(=O)O [kainate acid],activity measured with electrodes in the guiding tunnels between the compartments Area 1 and Area 2,increases the activity
same,activity measured with electrodes in the guiding tunnels between the compartments Area 2 and Area 3,substantially on the base level
same,activity measured with electrodes in the guiding tunnels between the compartments Area 3 and Area 1,increases the activity
